# According to patent publication US4588727A, “Intermediates for pyrrolo[1,2-b][1,2,5]triazepines” (Hoechst-Roussel Pharmaceuticals Inc., priority 1985, dated 1986):
# Where a name gives a salt, the structure may show the parent alone.
# Key:
# mice [1] = assay: 2-phenyl-1,4-benzoquinone-induced writhing test in mice (PQW, analgesia); format: in vivo; conditions: Mus musculus, sc, read-out: PQW (% decrease)
# Source text: Compounds I and II of the present invention are useful as analgesic agents due to their ability to alleviate pain in mammals. […] Exptl. Biol. Med., 95, 729 (1957)].
# rats = assay: Geller-conflict paradigm with rats (anxiolytic); format: in vivo; conditions: i.p., CRF-conflict responding versus previous day's control trial
# Source text: Compounds I and II of the present invention are useful as anxiolytic agents. […] See Geller, Irving and Seifter, Psychopharmacologia Vol. 1, 482-492 (1962). Male rats are used as test subjects. They are housed individually and food and water are available ad libitum until they are 300 to 400 grams prior to the start of training. Subsequently they are food deprived until their body weight is reduced to approximately 80% of original and it is maintained at this level by a restricted food diet.
# The programming and test equipment consists of solid state devices, shockers and cages within sound-attenuated environmental enclosures. The data is recorded on both solid state print-out counters and cumulative recorders. The cages are equipped with a houselight, a single-lever, cue-lights, a liquid dipper, a speaker and a grid-floor connected to a shocker. Sweetened condensed milk delivered by the liquid-dipper serve as the positive reinforcement for all subjects.
# The subjects are trained to lever-press for the milk reward in two distinct response-reward sections. In the anxiety or "conflict" segment, signaled by onset of both tone and cue-lights, a dipper of milk is delivered in response to each lever-press (CRF schedule of reinforcement). However lever presses during this period are also accompanied by a 40 m sec pulse of aversive footshock through the grid-floor. This creates a "conflict between (1) easy access to milk reward and (2) the simultaneous presentation of a painful foot-shock. This "conflict" period is 3 minutes in duration.
# During the other segment of this paradigm, the lever presses produces a dipper of milk only at variable intervals of time from 60 to 210 seconds with an average reward of once per 2 minutes (VI-2 min.). No shocks are ever administered during this VI phase of testing which is 15 minutes in duration.
# The test procedure consists of four 15 minute (non-shock) VI segments where reinforcement was available on a limited basis. Each VI period is followed by a 3 minute "CRF"-conflict phase when reinforcement is constantly available but always accompanied by an aversive foot-shock. The shock-level is titrated for each subject to reduce the CRF responding to a total of less than 10 lever-presses during the entire test. The rats are tested four days a week. Drugs are administered on the third day and the performance is compared to the previous days control trial. The VI responses are used to evaluate any general debilitating drug effects, while the CRF responses are used to evaluate any "anti-anxiety" effects as indicated by increased responding during the "CRF-conflict" period.
# All test compounds are administered by intraperitoneal injection in volumes of 10 cc/kg and the pretreat interval is usually one-half hour.
# mice [2] = assay: supramaximal electroshock assay (SES, anticonvulsant); format: in vivo; conditions: Mus musculus, ip, male mice, at peak activity time
# Description: Compounds I and II of the present invention are useful as anticonvulsant agents. […] Groups of male mice (18-30 grams) are used. Drugs are prepared using distilled water and if insoluble, a surfactant is added. Control animals receive vehicle. Drugs are routinely administered intraperitoneally. The dosage volume is 10 ml/kg.
# The animal's eyes are placed across the output terminals of an A.C. shocker that delivers 206 volts rms for 300 milliseconds. Electrode paste coats the animal's eyes at the point of contact with the terminals.
# Protection is expressed as normalized percent inhibition relative to vehicle control. [formula]
# A time response is carried out using 6 animals per group. Animals are tested at 30, 60 and 120 minutes postdrug. Additional time periods are tested if indicated by previous tests.
# When the peak activity time has been determined, a dose response is initiated, using 10 animals per group at that time period. The ED50 and 95% confidence interval are calculated by computerized probit analysis.
# [3] = molecular target: benzodiazepine recognition sites; assay: benzodiazepine (Bz) binding, rat cerebral cortex membrane preparation; conditions: rat cortex membranes, 2 nM radioactive benzodiazepine, pH 6.9, 20 minutes at 0-4° C.
# Source text: This assay is used to determine potential anxiolytic or anticonvulsant activity via direct interaction with benzodiazepine recognition sites in a membrane preparation obtained from rat brain.
# Benzodiazepine is a widely prescribed phychoactive agent. It has various pharmacological properties, including anti-anxiety, anticonvulsant, muscle relaxant and hypnotic effects. The relationships between the pharmacological activities of this compound and the GABA receptor-chlorideionophore complex have been studied in the past. The values of IC50 listed in Table II were determined in the following manner. See Squires and Braestrup, "Benzodiazepine Receptors in Rat Brain", Nature, 266, 732-734 (1977). […]
# a. 78.1 g of Tris-HCl q.s. to 1 liter b. 60.6 g of Tris-base q.s to 1 liter c. Adjust pH of Tris HCl to 6.9 at 25° C. by adding Tris base to obtain 0.5M Tris buffer, pH 6.9. d. Make a 1:10 dilution with distilled H2 O to obtain 0.05M Tris buffer, pH 6.9 2. 0.32M sucrose: 21.9 g of sucrose q.s. to 200 ml
# 3. Radioactive benzodiazepine: this marker compound is made up to a concentration of 80 nM and 50 μl of the solution is added to each tube, which yields a final concentration of 2 nM in the assay.
# 4. Test Compounds: 1 mM stock solution is made up in a suitable vehicle and serially diluted, such that the final concentration in the assay ranges from 10^-5 to 10^-8 M.
# Male Wistar rats are decapitated and the brain rapidly removed. The cerebral cortices are removed, weighed and homogenized with a homogenizer in 20 volumes of ice-cold 0.32M sucrose. This homogenate is contrifuged at 1,000 g for 10 minutes, the pellet is discarded and the supernatant is recentrifuged at 30,000 g for 20 minutes. The resulting membrane pellet is resuspended in 40 volumes of 0.05M Tris buffer, pH 6.9.
# 1 ml 0.05M Tris buffer, pH 6.9
# 70 μl 0.5M Tris buffer, pH 6.9
# 50 μl radioactive benzodiazepine solution
# 20 μl vehicle or a solution containing an appropriate concentration of test drug 300 μl tissue suspension prepared above
# A tube containing the […] listed above is incubated at 0°-4° C. in an ice bath. A 300 μl aliquot of the tissue suspension is added to the tube and the sample is then incubated for 20 minutes at 0°-4° C. and thereafter vacuum-filtered using a suitable filter. The filter is immediately rinsed with three 5 ml washes of ice-cold Tris buffer, pH 6.9. The radioactivity of the filter is counted in 10 ml of a counting cocktail. The value of the radioactive counting obtained for a sample containing a test drug is compared to the counting obtained for the sample not containing the test drug and the ratio between the two computed. The IC50 value for a given test drug is defined as that concentration of the test drug at which said ratio becomes 50% (IC stands for inhibitory concentration).
Compound,inhibition in vivo at 20 mg/kg (mice [1]) [%],Geller dose/CRF: CRF (rats; dose 40 mg/kg),ED50 (mice [2]) [mg/kg],IC50 [3] [nM],Geller dose/CRF: CRF (rats; dose 60 mg/kg)
CN(C(=O)CN)n1cccc1C(=O)c1ccccc1Cl [1-(N-Methyl-aminoacetamido)-2-(2-chlorobenzoyl)pyrrole hydrobromide],42,–,–,–,–
Br.CN(C(=O)CN)n1cccc1C(=O)c1ccccc1F [1-(N-Methyl-aminoacetamido)-2-(2-fluorobenzoyl)pyrrole hydrobromide],–,11.2,8.2,< 10000,–
NCC(=O)Nn1cccc1C(=O)c1ccccc1 [1-Aminoacetamido-2-benzoylpyrrole hydrochloride],23,–,–,–,–
"Br.CN1C(=O)CN=C(c2ccccc2)c2cccn21 [1-Methyl-5-phenyl-1H-pyrrolo[1,2-b][1,2,5]triazepin-2(3H)-one hydrobromide]",26,22.6,–,340,–
O=C(CNC(=O)OCc1ccccc1)Nn1cccc1C(=O)c1ccccc1 [1-[(Carbobenzyloxyamino)acetamido]-2-benzoylpyrrole],50,–,–,–,–
CC(C)(C)OC(=O)NCC(=O)Nn1cccc1C(=O)c1ccccc1Cl [1-[(t-Butoxycarbonylamino)acetamido]-2-(2-chlorobenzoyl)pyrrole],49,–,–,–,–
CC(C)(C)OC(=O)NCC(=O)Nn1cccc1C(=O)c1ccccc1F [1-[(t-Butoxycarbonylamino)acetamido]-2-(2-fluorobenzoyl)pyrrole],21,–,–,–,–
CN(C(=O)CNC(=O)OC(C)(C)C)n1cccc1C(=O)c1ccccc1Cl [1-[N-Methyl-(t-butoxycarbonylamino)acetamido]-2-(2-chlorobenzoyl)pyrrole],47,–,–,–,–
"CN1C(=O)CN=C(c2ccccc2Cl)c2cccn21 [5-(2-Chlorophenyl)-1-methyl-1H-pyrrolo[1,2-b][1,2,5]triazepin-2(3H)-one]",36,1.4,17.9,22.7,–
"O=C1CN=C(c2ccccc2Cl)c2cccn2N1 [5-(2-Chlorophenyl)-1H-pyrrolo[1,2-b][1,2,5]triazepin-2(3H)-one]",–,–,–,204,15
"CN1C(=O)CN=C(c2ccccc2F)c2cccn21.Cl [5-(2-Fluorophenyl)-1-methyl-1H-pyrrolo[1,2-b][1,2,5]triazepin-2(3H)-one hydrochloride]",27,–,43.6,62.1,–
"O=C1CN=C(c2ccccc2F)c2cccn2N1 [5-(2-Fluorophenyl)-1H-pyrrolo[1,2-b][1,2,5]triazepin-2(3H)-one]",–,2.4,–,586,–
"O=C1CN=C(c2ccccc2)c2cccn2N1 [5-Phenyl-1H-pyrrolo[1,2-b][1,2,5]triazepin-2(3H)-one]",31,–,–,6730,–
"CN1C(=O)CN=C(c2ccccc2F)c2ccc(Cl)n21.Cl [8-Chloro-5-(2-fluorophenyl)-1-methyl-1H-pyrrolo[1,2-b][1,2,5]triazepin-2(3H)-one hydrochloride]",19,–,36.1,699,–
Cc1ccc(C(=O)c2ccccc2F)n1NC(=O)CNCC(=O)Nn1c(C)ccc1C(=O)c1ccccc1F [Di-[(2-(2-fluorobenzoyl)-5-methyl-1H-pyrrol-1-yl)-2-acetamido]amine hydrochloride],68,–,–,–,–
CN(C)CCNn1cccc1C(=O)c1ccccc1Cl [[2-(2-Chlorobenzoyl)-1H-pyrrol-1-yl]-2-(dimethylamino)ethylamine hydrobromide],72,–,–,–,–
"CCOC(=O)N(CCN(C)C)n1cccc1C(=O)c1ccccc1Cl [[2-(2-Chlorobenzoyl)-1H-pyrrol-1-yl]-2-[(dimethylamino)ethyl]carbamic acid, ethyl ester hydrobromide]",41,–,–,–,–
